Experimental data from PubChem BioAssay (NCI).
Values joined by “and” are separate entries in the source; they are usually repeats but may differ in a detail not shown here. Equal values may be shown once.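 96-well plates; 48 h exposure; 5 concentrations. Endpoints by linear interpolation between flanking doses. Not reached: highest tested concentration assigned. GI50 = concentration required for 50% inhibition of growth. TGI: total growth inhibition.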

Columns and labels:
Experiment in all cases: growth of human tumour cells (NCI), 48 h
BT-549 breast = test system: BT-549 breast
MDA-MB-435 = test system: MDA-MB-435
DU-145 prostate = test system: DU-145 prostate
RXF-631 renal = test system: RXF-631 renal
MDA-N = test system: MDA-N

`Oc1cn(-c2ccc(Cl)cc2)nc1-c1n[nH]c(=S)n1-c1ccc(F)cc1` was tested, and the GI50 (BT-549 breast) was 16.5 µM, the TGI (BT-549 breast) was 56.9 µM and the GI50 (MDA-MB-435) was 4.93 µM. The TGI (MDA-MB-435) was greater than 100 µM, the GI50 (DU-145 prostate) was 22 µM and the TGI (DU-145 prostate) was greater than 100 µM.

`Cc1nc2ccncc2[nH]1` was tested, and the TGI (RXF-631 renal) was greater than 100 µM.

For `CC(C)(C)OC(=O)N[C@H]1CC(=O)c2ccccc2N(CC(=O)O)C1=O`, the TGI (RXF-631 renal) was greater than 100 µM.

For `CCOC(=O)C1=C(C)N(NC(N)=O)C2(N)N(NC(N)=O)C(C)=C(C(=O)OCC)C12C#N` (configuration not stated), the TGI (RXF-631 renal) was greater than 100 µM.

For `CN(C)C1C(=O)C(C(N)=O)=C(O)C2(O)C(=O)C3=C(O)c4c(O)cccc4C(C)(O)C3CC12.[Cl][Sb]([Cl])[Cl]` (configuration not stated), the GI50 (BT-549 breast) was 2.95 µM, the TGI (BT-549 breast) was 10.4 µM and the GI50 (MDA-MB-435) was 2.91 µM. For the same compound, the TGI (MDA-MB-435) was 10.4 µM, the GI50 (DU-145 prostate) was 4.33 µM and the TGI (DU-145 prostate) was 14.9 µM.

For `O=C(CCCCN1CCN(CCCCC(=O)Nc2ccccc2C#C/C=C\C#Cc2ccccc2C(F)(F)F)CC1)Nc1ccccc1C#C/C=C\C#Cc1ccccc1C(F)(F)F`, the GI50 (BT-549 breast) was 8.94 µM, the TGI (BT-549 breast) was 17.4 µM and the GI50 (MDA-MB-435) was 11.7 µM. For the same compound, the TGI (MDA-MB-435) was 22 µM, the GI50 (DU-145 prostate) was 17.4 µM and the TGI (DU-145 prostate) was greater than 50 µM.

`Cc1ccc2ccc3c4ccccc4ccc3c2c1` gave a GI50 (BT-549 breast) of 30.9 µM, a TGI (BT-549 breast) greater than 100 µM and a GI50 (MDA-MB-435) of 18.1 µM. It also gave a TGI (MDA-MB-435) of 71 µM, a GI50 (DU-145 prostate) of 34.6 µM and a TGI (DU-145 prostate) greater than 100 µM.

With `Cc1ccc(-n2nc(C(OC3OC(CO)C(O)C(O)C3O)C(O)CO)c3nc4cc(C)c(C)cc4nc32)cc1` (configuration not stated) the TGI (RXF-631 renal) was greater than 100 µM.

`N=C(N)n1cc(/C=N/N=C(N)N)cn1` was tested, and the TGI (BT-549 breast) was greater than 100 µM, the TGI (MDA-MB-435) was greater than 100 µM and the TGI (DU-145 prostate) was greater than 100 µM. The TGI (MDA-N) was greater than 100 µM.

`CCCC(O)[C@@]1(CC)CC(C)C(O)(C2(C)C[C@H](C)[C@@H](C(CC)C(=O)C(C)[C@@H](O)[C@H](C)C3OC(O)(C(CC)C(=O)O)[C@@H](C)C(O)C3CC)O2)O1` (some centres not stated) gave a TGI (BT-549 breast) of 1.41 µM, a TGI (MDA-MB-435) of 1.2 µM and a TGI (RXF-631 renal) of 1.93 µM. For the same compound, the TGI (DU-145 prostate) was 1.31 µM and the TGI (MDA-N) was 1.86 µM.

`CCOC(=O)c1cn(C)c2c(OC)c3ccccc3c(OC)c2c1=O` gave a GI50 (BT-549 breast) of 43 µM, a TGI (BT-549 breast) greater than 100 µM and a GI50 (MDA-MB-435) of 15.9 µM. The TGI (MDA-MB-435) was 30 µM, the GI50 (DU-145 prostate) was 63 µM and the TGI (DU-145 prostate) was greater than 100 µM.

For `Cn1cc(-c2ccc3ncc(-c4ccc(CC(=O)Nc5cc(C(C)(C)C)nn5C)cc4)cc3c2)cn1`, the GI50 (BT-549 breast) was 0.589 µM, the TGI (BT-549 breast) was 2.78 µM and the GI50 (MDA-MB-435) was 1.25 µM. It also gave a TGI (MDA-MB-435) greater than 20 µM, a GI50 (DU-145 prostate) of 1.1 µM and a TGI (DU-145 prostate) greater than 20 µM.

Compound `CCCCCCCCCCCCCCCC(=O)OCC1OC(n2cc(F)c(=O)[nH]c2=O)C(NC(=O)OCc2ccccc2)C(O)C1O` (configuration not stated) has a TGI (RXF-631 renal) of 34.9 µM.

With `C#COc1cccc(Nc2ncnc3cc(NC(=O)[C@@H](C)Cl)ccc23)c1` the GI50 (BT-549 breast) was 6.89 µM, the TGI (BT-549 breast) was greater than 62.5 µM and the GI50 (MDA-MB-435) was 1.65 µM. For the same compound, the TGI (MDA-MB-435) was 4.66 µM, the GI50 (DU-145 prostate) was 16.2 µM and the TGI (DU-145 prostate) was greater than 62.5 µM.

`COC(=O)c1ccc(NC(N)=NCCC(C)(C)c2ccc(C(F)(F)F)cc2)nc1` gave a GI50 (BT-549 breast) of 4.85 µM, a TGI (BT-549 breast) of 18.1 µM and a GI50 (MDA-MB-435) of 1.83 µM. The TGI (MDA-MB-435) was 4.16 µM, the GI50 (DU-145 prostate) was 3.44 µM and the TGI (DU-145 prostate) was 13.9 µM.

`COc1ccc(/C=C/C(=O)c2c(-c3ccccc3)nn(C)c(=O)c2N2CCCCC2)cc1` gave a TGI (RXF-631 renal) greater than 100 µM.

`S=C(Sc1ccc(Cl)cc1)Sc1ccc(Cl)cc1` was tested, and the GI50 (BT-549 breast) was 1.21 µM, the TGI (BT-549 breast) was 3.16 µM and the GI50 (MDA-MB-435) was 1.92 µM. It also gave a TGI (MDA-MB-435) of 4.9 µM, a GI50 (DU-145 prostate) of 3.6 µM and a TGI (DU-145 prostate) of 11.4 µM.

With `CC(=O)C1(C(=O)C(=[N+]=[N-])S(=O)(=O)c2ccccc2)CC1` the TGI (BT-549 breast) was greater than 100 µM, the TGI (MDA-MB-435) was greater than 100 µM and the TGI (DU-145 prostate) was greater than 100 µM. It also gave a TGI (MDA-N) greater than 100 µM.

Compound `O=C(O)c1ccccc1NCn1nc(-c2ccccc2O)oc1=S` has a GI50 (BT-549 breast) of 73.8 µM, a TGI (BT-549 breast) greater than 100 µM and a GI50 (MDA-MB-435) greater than 100 µM. It also gave a TGI (MDA-MB-435) greater than 100 µM.

`O=C(Nc1ccc(-n2cc(-c3ccncc3)c(-c3ccc(Cl)c(O)c3)n2)cc1)c1cc(C(F)(F)F)cc(C(F)(F)F)c1` showed a GI50 (BT-549 breast) of 13.3 µM, a TGI (BT-549 breast) of 91.2 µM and a GI50 (MDA-MB-435) of 4.11 µM. For the same compound, the TGI (MDA-MB-435) was 80.5 µM, the GI50 (DU-145 prostate) was 12.3 µM and the TGI (DU-145 prostate) was 54.7 µM.

Work on `O=C1c2cccc3c(N4CCOCC4)ccc(c23)C(=O)N1CCN1CCN(CCCCCN2CCN(CCN3C(=O)c4cccc5c(N6CCOCC6)ccc(c45)C3=O)CC2)CC1` yielded a GI50 (BT-549 breast) greater than 100 µM, a TGI (BT-549 breast) greater than 100 µM and a GI50 (MDA-MB-435) greater than 100 µM. The TGI (MDA-MB-435) was greater than 100 µM, the GI50 (DU-145 prostate) was greater than 100 µM and the TGI (DU-145 prostate) was greater than 100 µM.

`CNC(=O)OCc1nc(SSc2nc(COC(=O)NC)c(COC(=O)NC)n2C)n(C)c1COC(=O)NC` was tested, and the TGI (RXF-631 renal) was greater than 100 µM.

With `CC(C)c1ccc(Cc2ccc(C(C)C)c(NC(=O)C(=O)Cc3cnc4ccccc4n3)c2C(C)C)c(C(C)C)c1NC(=O)C(=O)Cc1cnc2ccccc2n1` the TGI (RXF-631 renal) was greater than 100 µM.

`O=C([O-])c1ccc([I+]c2ccccc2)cc1` was tested, and the TGI (RXF-631 renal) was greater than 100 µM.

`COc1ccc(-c2cnc(-c3ccncc3-c3cccc(OC)c3)o2)cc1` was tested, and the GI50 (BT-549 breast) was 0.154 µM, the TGI (BT-549 breast) was 13.9 µM and the GI50 (DU-145 prostate) was 0.0408 µM. The TGI (DU-145 prostate) was 12.9 µM.

Compound `CCN1C(=O)N(CC)C2C1NC(=S)N2/N=C/C=C/c1ccccc1` (configuration not stated) has a GI50 (BT-549 breast) of 0.225 µM, a TGI (BT-549 breast) of 13 µM and a GI50 (MDA-MB-435) of 0.0253 µM. For the same compound, the TGI (MDA-MB-435) was 0.0664 µM, the GI50 (DU-145 prostate) was 0.377 µM and the TGI (DU-145 prostate) was greater than 100 µM.

`COS(=O)c1cc(Cl)cc(Cl)c1OC(=O)CSSCC(=O)Oc1c(Cl)cc(Cl)cc1S(=O)OC` (configuration not stated) was tested, and the TGI (RXF-631 renal) was 63.7 µM.

In the case of `CC(C)(C)O/N=C/c1cc(NC(=S)c2ccccc2)ccc1Cl`, the TGI (BT-549 breast) is reported as 35.1 µM, the TGI (MDA-MB-435) is reported as 88.7 µM and the TGI (DU-145 prostate) is reported as 42.1 µM. It also gave a TGI (MDA-N) of 29.9 µM.

`Cc1ccc(C(=O)Nc2ccc(Oc3cc4cnn(C)c4cc3-c3cn[nH]c3)c(F)c2)c(=O)n1-c1ccc(F)cc1` was tested, and the GI50 (BT-549 breast) was 7.05 µM, the TGI (BT-549 breast) was greater than 100 µM and the GI50 (MDA-MB-435) was 3.23 µM. The TGI (MDA-MB-435) was greater than 100 µM, the GI50 (DU-145 prostate) was greater than 50 µM and the TGI (DU-145 prostate) was greater than 100 µM.

`CCN(CC)CCNc1n[n+]([O-])c2cc([N+](=O)[O-])ccc2[n+]1[O-]` was tested, and the TGI (BT-549 breast) was 8.85 µM and 8.27 µM and 3.64 µM, the TGI (MDA-MB-435) was 2.71 µM and 2.37 µM and 2.29 µM and the GI50 (DU-145 prostate) was 1.2 µM and 0.63 µM and 0.578 µM. The TGI (DU-145 prostate) was 6.15 µM and 3.57 µM and 3.16 µM and the TGI (MDA-N) was 2.48 µM and 1.65 µM and 1.2 µM.

Work on `C=C1C(=O)O[C@@H]2C[C@@]3(C)[C@H](O)CCC(=C)[C@@H]3C[C@H]12` yielded a TGI (RXF-631 renal) of 28.1 µM.

In the case of `Nc1nc(-c2ccccc2)c(CC(=O)O)s1`, the TGI (BT-549 breast) is reported as greater than 100 µM, the TGI (MDA-MB-435) is reported as greater than 100 µM and the TGI (DU-145 prostate) is reported as greater than 100 µM. The TGI (MDA-N) was greater than 100 µM.

`COc1ccc([C@@]23Oc4cc(OC)cc(OC)c4[C@]2(O)[C@H](O)[C@H](C(=O)N(C)C)[C@H]3c2ccccc2)cc1` was tested, and the TGI (MDA-MB-435) was 0.0434 µM and 0.0188 µM and 0.15 µM, the GI50 (DU-145 prostate) was 0.0135 µM and the TGI (DU-145 prostate) was 0.0635 µM and 0.0375 µM and 0.219 µM.

`O=C(Nc1nc2ccc(S(=O)(=O)Nc3ccc(C4(C(F)(F)F)CC4)cc3)cc2[nH]1)c1cnccn1` gave a GI50 (BT-549 breast) of 1.91 µM, a TGI (BT-549 breast) of 16.1 µM and a GI50 (MDA-MB-435) of 0.33 µM. It also gave a TGI (MDA-MB-435) of 1.4 µM, a GI50 (DU-145 prostate) of 2.88 µM and a TGI (DU-145 prostate) of 13.2 µM.
